{"source": "patent US20050037956A1", "about": "“Screening method for agents useful in treating diabetes” (priority 2001, published 2005)", "key": {"[1]": {"tested_on": "pRB-E2F interaction (E2F-pRB complex)", "assay": "Electromobility shift assay (EMSA) with E2pro oligonucleotide and nuclear extracts from day 8 NIH3T3-L1 cells, peptide added to binding reaction", "details": "in vitro, increasing peptide concentration added to binding reaction, day 8 NIH3T3-L1 nuclear extracts", "description": "Changes in E2F DNA-binding patterns during adipogenesis were investigated. Nuclear extracts were prepared from NIH3T3-L1 cells at different times during induction of differentiation and their E2F DNA-binding activity was assessed by DNA gel shift assays using a radio active E2pro oligonucleotide corresponding to two tandem E2F binding sites in the adenovirus E2 promoter. Oligonucleotide probes were radiolabeled using E. coli polynucleotide kinase and {γ-32P}ATP. The oligonucleotides used for electromobility shift assays (EMSA) were as follows (only upper strands are given): E2pro (corresponding to the −72 to −32 region of the adenovirus E2 promoter; E2F binding site), 5′-[…]-3′ (SEQ ID NO:1); CycD1 (E2F binding site from the cyclin D1 promoter), 5′-[…]-3′ (SEQ ID NO:2); CycD1m, 5′-[…]-3′ (SEQ ID NO:3, mutated nucleotides in bold italic). […] The gel was dried and analyzed using a PhosphorImager. […]\nThe specific peptide was modified to improve cell penetration by linking to the amino terminal end of the interfering peptide a specific region of the HIV tat protein of 18 amino acids in length, which renders conjugated peptides cell-penetrable (Schwarze, S. R., et al., 1999, Science 285(5433): 1569-72). The effect of this elongated interfering peptide on E2F was first assessed in vitro as above. […]"}, "[2]": {"tested_on": "PAI-1 expression", "assay": "PAI-1 induction by insulin in adipocytes in presence of PI3K or MEK1 inhibitors", "type": "cell-based", "details": "adipocytes treated by insulin in presence of inhibitor", "description": "(§1) Adipocyte differentiation was monitored by staining lipids with oil-red O. Briefly, cells were washed twice with phosphate buffered saline (PBS) and fixed with 3.7% formaldehyde solution for 1 h. After washing twice with PBS, cells were stained with oil-red O [60:40 (v/v) dilution in water of 0.5% stock solution (v/v, in isopropanol)] for 1 h. Cells were then washed twice with PBS and twice with water. Lipid-positive cells started to appear after the third day of induction and reached more than 90% by the eighth day. PPARγ (peroxisome proliferator-activated receptor gamma) mRNA, another marker of adipocyte differentiation, also started to appear at the third day and reached a plateau by the 5th day. For RNA analysis, total RNA (12 μg), prepared with acid guanidinium thiocyanate-phenol-chloroform method, was resolved by agarose gel electrophoresis under denaturing conditions and transferred to a nylon membrane as described (Northern blotting) (Ziegler, A., et al., 1991, J Biol Chem 266(31): 21067-74). Equal RNA loading and transfer to nylon membranes were confirmed by staining rRNA with methylene blue (Herrin, D. L. and G. W. Schmidt, 1988, Biotechniques 6(3): 196-7, 199-200). […] Levels of specific RNA were measured using a Molecular Dynamic PhosphorImager. […]"}, "[3]": {"tested_on": "PAI-1 mRNA", "assay": "PAI-1 mRNA induction by insulin at different stages of NIH3T3-L1 differentiation (Northern blot)", "type": "cell-based", "description": "NIH3T3-L1 preadipocytes (ATCC No. CL-173) were induced to differentiate into adipocytes by treating confluent cells with a mixture of insulin, dexamethasone and isobutylmethylxanthine followed by a successive change of different media (Student, A. K. et al., 1980, J Biol Chem. 255:4745-4750). In brief, NIH3T3-L1 preadipocytic cells (2×10^5 cells) were grown in 60-mm plastic dishes with 4 ml Dulbecco's modified Eagle's medium (DMEM) supplemented with 10% fetal bovine serum (FBS). Two days after cells reached confluency, the medium was changed to DMEM containing 10% FBS, 10 μg/ml insulin, 1 μM dexamethason, and 0.5 mM isobutylmethylxanthine. Two days later, this medium was replaced with DMEM supplemented only with 10 μg/ml insulin. Subsequently, two days later this medium was withdrawn and replaced with DMEM containing 10% FBS, and thereafter cells were replenished with the same medium every two days.\nas §1, with “21067-74).” for “21067-74). Equal RNA loading and transfer to nylon membranes were confirmed by staining rRNA with methylene blue (Herrin, D. L. and G. W. Schmidt, 1988, Biotechniques 6(3): 196-7, 199-200).”"}}}
{"molecule": "specific interfering peptide: peptide whose sequence was derived from amino acids 402-419 of E2F1 corresponding to the pRB-binding region of E2F1 (LSPPHEALDYHFGLEEGE; UniProt Q01094 402-419, looked up, fragment)", "values": [{"measurement": "shift of DNA-protein complexes (E2F DNA-binding, EMSA)", "setting": "[1]", "value": "shift from DNA-protein complexes of higher molecular weight forms to complexes of lower molecular weight forms"}]}
{"molecule": "COc1cccc(-c2cc(=O)c3ccccc3o2)c1N", "note": "[PD98059]", "values": [{"measurement": "PAI-1 induction by insulin", "setting": "[2]", "value": "suppressed"}]}
{"molecule": "insulin", "values": [{"measurement": "PAI-1 mRNA induction by insulin", "setting": "[3]; NIH3T3-L1 cells before cells were confluent", "value": "induced to a very low extent"}, {"measurement": "PAI-1 mRNA induction by insulin", "setting": "[3]; NIH3T3-L1 cells when confluent", "value": "not at all"}, {"measurement": "PAI-1 mRNA induction by insulin", "setting": "[3]; terminally differentiated cells (day 4 and 8)", "value": "induced markedly"}]}
